This is an account of results in the kinase profiling compilation of Christmann-Franck et al. (2016).

Holding throughout (test): Free Choice Kinase Assay Projects, Flashplate
One assay has as its target AKT1 (human) (UniProt P31749). Particulars: compound 10.0 µM; ATP 3 µM.
The target in a further assay is AURKA (human) (UniProt O14965). Particulars: compound 10.0 µM; ATP 10 µM.
The next assay addresses AURKB (human) (UniProt Q96GD4). Particulars: compound 10.0 µM; ATP 10 µM.
In the next assay the target is AXL (human) (UniProt P30530). Particulars: compound 10.0 µM; ATP 0.3 µM.
For a further assay, the target named is CDK2 CCNA2 (human) (UniProt P24941+P20248). Particulars: compound 10.0 µM; ATP 0.3 µM.
For a further assay, the target named is CDK4 CCND1 (human) (UniProt P11802+P24385). Particulars: compound 10.0 µM; ATP 3 µM.
In a further assay the target is CSNK2A1 (human) (UniProt P68400). Particulars: compound 10.0 µM; ATP 0.1 µM.
Chain of CSNK2A1 (human) (P68400 whole entry, looked up): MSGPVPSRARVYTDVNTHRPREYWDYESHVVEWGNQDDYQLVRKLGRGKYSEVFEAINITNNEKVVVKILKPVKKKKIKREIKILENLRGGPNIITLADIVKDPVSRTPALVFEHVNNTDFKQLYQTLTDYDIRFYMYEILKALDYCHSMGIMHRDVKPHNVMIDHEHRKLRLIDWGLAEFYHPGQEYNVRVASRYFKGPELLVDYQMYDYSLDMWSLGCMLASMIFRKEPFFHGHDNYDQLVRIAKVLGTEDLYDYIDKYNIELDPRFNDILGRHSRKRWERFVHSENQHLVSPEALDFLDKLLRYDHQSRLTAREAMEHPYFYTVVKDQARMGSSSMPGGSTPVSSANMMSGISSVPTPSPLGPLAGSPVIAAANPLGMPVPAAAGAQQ
A further assay has as its target EGFR (human) (UniProt P00533). Particulars: compound 10.0 µM; ATP 0.3 µM.
For a further assay, the target named is EPHB4 (human) (UniProt P54760). Particulars: compound 10.0 µM; ATP 1 µM.
A further assay addresses ERBB2 (human) (UniProt P04626). Particulars: compound 10.0 µM; ATP 1 µM.
The target in a further assay is IGF1R (human) (UniProt P08069). Particulars: compound 10.0 µM; ATP 1 µM.
Chain of IGF1R (human) (P08069 whole entry, looked up): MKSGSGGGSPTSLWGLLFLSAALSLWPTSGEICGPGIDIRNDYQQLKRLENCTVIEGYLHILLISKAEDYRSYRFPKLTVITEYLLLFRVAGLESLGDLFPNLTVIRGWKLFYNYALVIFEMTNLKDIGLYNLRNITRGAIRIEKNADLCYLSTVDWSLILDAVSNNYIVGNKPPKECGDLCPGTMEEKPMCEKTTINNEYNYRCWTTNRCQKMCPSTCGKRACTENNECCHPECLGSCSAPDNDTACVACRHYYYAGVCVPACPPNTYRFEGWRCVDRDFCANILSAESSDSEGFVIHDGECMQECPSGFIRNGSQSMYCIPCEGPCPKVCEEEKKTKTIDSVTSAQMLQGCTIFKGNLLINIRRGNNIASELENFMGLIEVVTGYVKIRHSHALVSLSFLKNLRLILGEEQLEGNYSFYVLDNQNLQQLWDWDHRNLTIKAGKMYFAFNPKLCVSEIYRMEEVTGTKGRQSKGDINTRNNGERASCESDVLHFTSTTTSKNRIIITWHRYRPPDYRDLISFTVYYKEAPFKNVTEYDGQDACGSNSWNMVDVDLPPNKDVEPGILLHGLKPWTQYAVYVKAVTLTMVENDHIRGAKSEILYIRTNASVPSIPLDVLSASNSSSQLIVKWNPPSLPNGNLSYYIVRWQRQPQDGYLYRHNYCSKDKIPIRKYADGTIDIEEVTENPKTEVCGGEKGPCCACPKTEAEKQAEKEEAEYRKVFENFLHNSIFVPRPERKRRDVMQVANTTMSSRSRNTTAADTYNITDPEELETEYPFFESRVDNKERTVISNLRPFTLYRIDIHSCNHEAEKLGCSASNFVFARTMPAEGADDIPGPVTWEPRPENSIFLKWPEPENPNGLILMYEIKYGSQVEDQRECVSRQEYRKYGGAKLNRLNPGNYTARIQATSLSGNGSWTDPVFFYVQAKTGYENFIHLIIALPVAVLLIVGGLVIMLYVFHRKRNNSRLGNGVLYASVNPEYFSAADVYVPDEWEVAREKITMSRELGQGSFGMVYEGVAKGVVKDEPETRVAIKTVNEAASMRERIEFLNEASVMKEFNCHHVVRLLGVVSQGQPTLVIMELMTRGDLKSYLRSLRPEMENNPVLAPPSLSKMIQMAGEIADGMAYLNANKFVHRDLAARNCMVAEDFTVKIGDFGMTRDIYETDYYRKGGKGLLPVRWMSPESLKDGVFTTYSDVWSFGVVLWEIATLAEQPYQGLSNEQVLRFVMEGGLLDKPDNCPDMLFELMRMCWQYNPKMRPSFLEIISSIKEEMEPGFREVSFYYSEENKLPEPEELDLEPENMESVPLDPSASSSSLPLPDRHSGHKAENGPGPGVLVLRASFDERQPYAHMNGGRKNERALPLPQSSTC
In a further assay the target is KDR (human) (UniProt P35968). Particulars: compound 10.0 µM; ATP 1 µM.
Chain of KDR (human) (P35968 whole entry, looked up): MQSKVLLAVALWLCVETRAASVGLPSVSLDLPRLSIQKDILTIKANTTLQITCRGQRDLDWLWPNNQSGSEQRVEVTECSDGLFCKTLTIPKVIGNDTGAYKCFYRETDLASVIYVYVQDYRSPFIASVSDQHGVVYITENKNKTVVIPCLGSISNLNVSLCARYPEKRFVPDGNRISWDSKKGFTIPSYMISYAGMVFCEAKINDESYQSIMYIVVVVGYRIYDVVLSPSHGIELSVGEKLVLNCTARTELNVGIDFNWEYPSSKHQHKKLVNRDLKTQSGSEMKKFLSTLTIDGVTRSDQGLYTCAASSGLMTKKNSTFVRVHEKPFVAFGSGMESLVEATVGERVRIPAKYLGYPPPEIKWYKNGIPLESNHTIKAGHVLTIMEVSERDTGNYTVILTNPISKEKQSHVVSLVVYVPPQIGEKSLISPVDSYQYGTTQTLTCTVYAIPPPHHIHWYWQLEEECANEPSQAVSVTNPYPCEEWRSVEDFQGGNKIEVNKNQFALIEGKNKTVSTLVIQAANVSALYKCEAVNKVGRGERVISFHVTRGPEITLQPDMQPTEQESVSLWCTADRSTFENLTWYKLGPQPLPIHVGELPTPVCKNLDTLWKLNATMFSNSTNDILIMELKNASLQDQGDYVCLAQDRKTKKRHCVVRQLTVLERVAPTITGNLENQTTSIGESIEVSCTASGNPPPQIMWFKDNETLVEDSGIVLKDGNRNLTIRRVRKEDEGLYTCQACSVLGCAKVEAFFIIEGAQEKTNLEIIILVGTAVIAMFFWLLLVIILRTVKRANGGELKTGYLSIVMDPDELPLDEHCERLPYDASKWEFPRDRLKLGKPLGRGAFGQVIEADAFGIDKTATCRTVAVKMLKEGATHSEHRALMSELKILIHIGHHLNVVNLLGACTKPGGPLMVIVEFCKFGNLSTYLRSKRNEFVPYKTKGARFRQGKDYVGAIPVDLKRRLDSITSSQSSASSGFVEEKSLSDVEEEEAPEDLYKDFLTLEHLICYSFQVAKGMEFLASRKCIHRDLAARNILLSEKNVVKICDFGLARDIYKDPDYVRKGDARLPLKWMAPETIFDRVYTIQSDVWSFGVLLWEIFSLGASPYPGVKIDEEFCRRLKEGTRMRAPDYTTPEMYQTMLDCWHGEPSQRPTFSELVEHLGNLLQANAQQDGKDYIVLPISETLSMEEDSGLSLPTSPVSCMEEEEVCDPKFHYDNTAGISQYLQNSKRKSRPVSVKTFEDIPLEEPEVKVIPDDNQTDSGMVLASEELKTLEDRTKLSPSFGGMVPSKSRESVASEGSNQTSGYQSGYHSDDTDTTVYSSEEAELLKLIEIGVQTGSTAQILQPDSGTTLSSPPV
Another assay concerns the target MAP3K8 (human) (UniProt P41279). Particulars: compound 10.0 µM; ATP 3 µM.
The target in a further assay is MAPK10 (human) (UniProt P53779). Particulars: compound 10.0 µM; ATP 0.3 µM.
The target in a further assay is MAPK14 (human) (UniProt Q16539). Particulars: compound 10.0 µM; ATP 1 µM.
The target in another assay is MET (human) (UniProt P08581). Particulars: compound 10.0 µM; ATP 0.3 µM.
A further assay has as its target NUAK1 (human) (UniProt O60285). Particulars: compound 10.0 µM; ATP 1 µM.
For a further assay, the target named is PDGFRB (human) (UniProt P09619). Particulars: compound 10.0 µM; ATP 0.3 µM.
Another assay has as its target PLK1 (human) (UniProt P53350). Particulars: compound 10.0 µM; ATP 1 µM.
Another assay has as its target PLK4 (human) (UniProt O00444). Particulars: compound 10.0 µM; ATP 0.3 µM.
The target in a further assay is PTK2 (human) (UniProt Q05397). Particulars: compound 10.0 µM; ATP 1 µM.
The target in a further assay is SRC (human) (UniProt P12931). Particulars: compound 10.0 µM; ATP 0.3 µM.
The next assay addresses TEK (human) (UniProt Q02763). Particulars: compound 10.0 µM; ATP 1 µM.

Chain of NUAK1 (human) (O60285 whole entry, looked up): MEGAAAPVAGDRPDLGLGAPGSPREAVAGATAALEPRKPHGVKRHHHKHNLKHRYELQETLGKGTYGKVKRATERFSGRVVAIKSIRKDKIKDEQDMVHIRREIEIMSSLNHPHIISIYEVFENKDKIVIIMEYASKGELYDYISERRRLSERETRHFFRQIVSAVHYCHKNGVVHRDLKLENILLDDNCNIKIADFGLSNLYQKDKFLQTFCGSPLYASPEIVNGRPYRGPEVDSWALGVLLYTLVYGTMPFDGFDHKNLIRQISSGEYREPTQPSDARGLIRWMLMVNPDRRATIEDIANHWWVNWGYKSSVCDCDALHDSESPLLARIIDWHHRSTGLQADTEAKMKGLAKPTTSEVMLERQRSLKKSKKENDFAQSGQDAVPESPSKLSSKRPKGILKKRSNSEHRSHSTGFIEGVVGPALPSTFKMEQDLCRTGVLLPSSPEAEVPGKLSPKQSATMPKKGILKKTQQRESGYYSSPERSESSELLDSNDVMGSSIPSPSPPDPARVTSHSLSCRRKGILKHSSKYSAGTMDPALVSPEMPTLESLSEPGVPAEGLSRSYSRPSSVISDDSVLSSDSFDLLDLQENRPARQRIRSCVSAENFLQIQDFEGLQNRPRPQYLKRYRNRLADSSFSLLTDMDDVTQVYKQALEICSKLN
Chain of ERBB2 (human) (P04626 whole entry, looked up): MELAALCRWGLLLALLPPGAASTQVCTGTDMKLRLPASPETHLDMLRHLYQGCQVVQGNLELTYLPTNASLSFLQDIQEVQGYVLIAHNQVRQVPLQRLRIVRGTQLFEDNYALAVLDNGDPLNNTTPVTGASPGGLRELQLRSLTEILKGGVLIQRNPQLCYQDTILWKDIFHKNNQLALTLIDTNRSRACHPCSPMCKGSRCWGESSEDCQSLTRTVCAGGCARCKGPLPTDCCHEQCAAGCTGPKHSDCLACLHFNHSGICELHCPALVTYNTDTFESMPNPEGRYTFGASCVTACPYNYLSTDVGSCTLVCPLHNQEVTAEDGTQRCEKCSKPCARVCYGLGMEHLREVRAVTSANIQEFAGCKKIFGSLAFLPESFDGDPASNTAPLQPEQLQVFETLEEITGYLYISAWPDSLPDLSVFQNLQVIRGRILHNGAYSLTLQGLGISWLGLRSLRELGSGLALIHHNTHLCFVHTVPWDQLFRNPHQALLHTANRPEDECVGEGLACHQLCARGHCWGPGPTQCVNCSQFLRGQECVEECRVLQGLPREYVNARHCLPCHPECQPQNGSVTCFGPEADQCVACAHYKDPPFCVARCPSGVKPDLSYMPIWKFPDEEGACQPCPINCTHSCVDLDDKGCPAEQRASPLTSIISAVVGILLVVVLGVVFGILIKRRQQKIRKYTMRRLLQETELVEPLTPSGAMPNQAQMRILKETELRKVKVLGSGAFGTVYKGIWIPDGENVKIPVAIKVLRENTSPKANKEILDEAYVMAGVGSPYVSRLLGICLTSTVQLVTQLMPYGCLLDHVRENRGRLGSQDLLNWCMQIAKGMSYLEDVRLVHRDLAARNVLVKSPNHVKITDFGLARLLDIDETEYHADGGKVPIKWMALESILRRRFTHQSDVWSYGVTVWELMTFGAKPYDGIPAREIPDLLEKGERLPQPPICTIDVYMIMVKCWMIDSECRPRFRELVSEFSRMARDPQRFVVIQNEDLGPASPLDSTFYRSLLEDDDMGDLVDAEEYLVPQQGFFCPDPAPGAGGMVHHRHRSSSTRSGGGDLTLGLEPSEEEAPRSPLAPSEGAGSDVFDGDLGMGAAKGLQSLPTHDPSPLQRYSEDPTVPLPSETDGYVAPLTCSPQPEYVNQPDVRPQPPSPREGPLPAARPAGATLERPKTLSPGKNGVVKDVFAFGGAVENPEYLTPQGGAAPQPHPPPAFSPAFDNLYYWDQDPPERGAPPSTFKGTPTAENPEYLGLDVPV

On to `CSc1ccc(CSc2nc(-c3ccncc3)c(-c3ccc(F)cc3)[nH]2)cc1`, for which the residual activity at AKT1 (human) was determined as 100%; on AURKA (human) it was 79%; at AURKB (human) it was 71%; on AXL (human), 65%; at CDK2 CCNA2 (human), 42%; at CDK4 CCND1 (human), 84%. For the same molecule, the residual activity on CSNK2A1 (human) was determined as 76%; on EGFR (human) it was 36%; on EPHB4 (human), 40%; on ERBB2 (human) it was 25%; at IGF1R (human), 23%; on KDR (human), 33%. Besides, the residual activity is 75% at MAP3K8 (human); 72% on MAPK10 (human); 16% at MAPK14 (human); 51% at MET (human); 122% on NUAK1 (human); 53% at PDGFRB (human). Also, the residual activity came to 115% at PLK1 (human); 21% on PLK4 (human); 130% at PTK2 (human); 20% at SRC (human); 21% on TEK (human).

With `Fc1ccc(-c2[nH]c(SCC3CCCCC3)nc2-c2ccncc2)cc1`, the residual activity on AKT1 (human) stood at 56%; at AURKA (human), 46%; on AURKB (human) it was 80%; on AXL (human) it was 63%; on CDK2 CCNA2 (human), 74%; at CDK4 CCND1 (human), 44%. In addition, the residual activity on CSNK2A1 (human) was 86%; on EGFR (human) it was 24%; on EPHB4 (human), 38%; on ERBB2 (human), 46%; on IGF1R (human), 22%; at KDR (human), 48%. Moreover, the residual activity at MAP3K8 (human) came out at 73%; at MAPK10 (human), 63%; at MAPK14 (human) it was 23%; at MET (human) it was 73%; on NUAK1 (human) it was 91%; on PDGFRB (human) it was 81%. Further, the residual activity at PLK1 (human) turned out to be 83%; on PLK4 (human), 34%; at PTK2 (human), 106%; at SRC (human), 38%; at TEK (human), 36%.

Take `On1c(CCc2ccccc2)nc(-c2ccncc2)c1-c1ccc(F)cc1`: the residual activity on AKT1 (human) turned out to be 144%; on AURKA (human), 44%; on AURKB (human), 41%; at AXL (human), 79%; at CDK2 CCNA2 (human), 54%; on CDK4 CCND1 (human), 84%. Further, the residual activity worked out at 82% on CSNK2A1 (human); 1% at EGFR (human); 32% at EPHB4 (human); 2% at ERBB2 (human); 17% at IGF1R (human); 4% at KDR (human). The residual activity at MAP3K8 (human) was determined as 78%; at MAPK10 (human), 14%; at MAPK14 (human), 0%; at MET (human), 44%; at NUAK1 (human), 100%; on PDGFRB (human), 37%. The residual activity was 100% at PLK1 (human); 16% on PLK4 (human); 87% at PTK2 (human); 4% at SRC (human); 18% at TEK (human).

The residual activity is the signal under treatment as a percentage of the control signal.
